Laboratory results as given in paper PMC10492782, “Exploiting the aggregation propensity of beta-lactamases to design inhibitors that induce enzyme misfolding” (Nature Communications, 2023).

Tested on: HeLa cells
Assay: CellTiter Blue cell viability
Settings: 24 h, 37 °C, DMEM without serum
Procedure: Fig. 7 Evaluation of in vivo use of peptides that induce the aggregation of TEM beta-lactamase. A Lysis of human erythrocytes (hemolysis) was assessed in the presence of the indicated concentrations of TEM3.2 for 2 h at 37 °C, and normalized to the value obtained with 1% of the detergent triton. […] B Cell viability using the CellTiter Blue assay of HeLa cells treated for 24 h with the indicated concentrations TEM 3.2 at 37 °C. […] DAPI (4’,6-diamidino-2-phenylindole) is blue, while CellMask is red. D Experimental workflow of the in vivo model used in this study. E–G Bacterial load of indicated organs of female C57BL/6JAX mice with a urinary tract infection with E. coli strain UZ_TEM104, treated with 30 mg/kg penicillin (oral) as well 10 mg/kg tazobactam (oral) or 10 mg/kg TEM3.2 via the indicated treatment route. IV intravenous, IP intraperitoneal, SC subcutaneously. The data shown is from a single experiment with 12 animals for each group. The result for each animal is shown as a dot. […] The statistically significant differences were determined using ANOVA, followed by Dunnett’s multiple comparison test. […]
The Cell Titer Blue assay was performed to evaluate the cell viability according to the instructions of the manufacturer (Promega, USA). […] The fluorescence was measured at 590 nm by exciting at 560 nm with a ClarioStar plate reader (BMG Labtech, Germany).

In the case of Ac-RLTAFLHNRRPRLTAFLRQRR-NH2 [TEM3.2], the “cytotoxicity, Cell Titer Blue (in words)” value is reported as “not cytotoxic”.
